Measured values from patent US10544151B2, “Compounds and uses thereof” (Kala Pharmaceuticals, Inc., priority 2013, dated 2020).

Tests used:
[1] = Physical and chemical stability of I-2 solutions at room temperature; format: physicochemical; conditions: F127 (0.5%), 20 mM Tris (pH 8)
Experimental: Solutions of I-2 were formulated with F127 or Tween 80, and under a range of pH values. Briefly, I-2 was first completely solubilized using an acidic solution (0.1 N HCl) at a high concentration of ˜5% (wiv). The final formulation was diluted to a solution consisting of 0.5% (wiv) I-2 into buffered solution containing F127 or Tween 80 as described in Table 5. Following dilution, the pH of the formulations was measured using pH indicator strips (PEHANON) and confirmed to be within expected range (±0.5 units of target pH).
Physical and chemical stability of the solutions at room temperature (20-25° C.) were assessed after 7-10 days (tfinal). Physical instability in a solution can manifest as the precipitation and sedimentation of the drug of interest and excipients over time. To assess physical stability, the formulations at tfinal were first filtered through a 300 kDa modified polyethersulfone filter membrane (Nanosep) to remove any precipitate in the solution. The concentration of I-2 in the filtrates was then measured and compared to that at t=0. The purity of I-2 in the unfiltered solution was also evaluated at tfinal, to further confirm chemical stability. This parameter is defined by the area under the signal peak that is attributed to compound I-2 as a percentage of all peaks reported by in the sample by HPLC (% peak area).

[2] = Draize-Ocular Irritation assessment; format: in vivo, Dutch-belted rabbits; conditions: topical I-2 solution formulations, during PK studies

physical stability of solution [1]: major physical instability
SMILES: Cc1cc(C(=O)Nc2cc(Oc3ccc4nc(NC(=O)CN5CC[C@H](N(C)C)C5)cn4n3)ccc2C)n(C)n1 [Compound I-2]
Draize-Ocular Irritation [2]: no irritation
